Source: paper PMC8861050, “Design, synthesis and evaluation of novel 2-oxoindoline-based acetohydrazides as antitumor agents” (Scientific Reports, 2022)
Read-outs that look alike come from different tables or passages of the source.

Assays:
PC3 (prostate cancer) [1] = tested on: PC3 (prostate cancer); set-up: method as in PMID 30054973; conditions: positive control, for relative comparison; read-out: Cytotoxicity (IC50) PC3; cited from earlier work
NCI-H23 (lung cancer) [2] = tested on: NCI-H23 (lung cancer); set-up: method as in PMID 30054973; conditions: positive control, for relative comparison; read-out: Cytotoxicity (IC50) NCI-H23; cited from earlier work
NCI-H23 (lung cancer) [3] = experiment: SRB cytotoxicity assay, NCI-H23; format: cell-based; conditions: Homo sapiens, 48 h incubation, mean ± SEM of 3 independent experiments
Excerpt: (§1) Three human cancer cell lines: colon cancer (SW620), prostate cancer (PC3), and lung cancer (NCI-H23) were used for sceening the cytotoxicity of the compounds. The cancer cells were purchased from American Type Culture Collection (Manassas, VA, USA). Other reagents/media for cell culture were obtained from GIBCO (Grand Island, New York, USA). The testing cancer cells were culture in Dulbecco’s Modified Eagle Medium until confluence. Then, they were trypsinized and suspended at the level of 3 × 10^4 cells/mL of cell culture medium. On day 0, cancer cells were seeded at a volume of 180 µL/well of 96-well plates and incubated for 24 h at 37 °C in a 5% CO2 incubator. On day 1, 20 µL of various concentrations of testing compounds were added to each well of the 96-well plates. Chemicals were dissolved in dimethyl sulfoxide (DMSO, stock) and diluted in culture medium (1% DMSO) before adding to the culture. After 48 h incubation, the sulforhodamine B assay was used for cell density determination with slight modifications[22]–[26]. The Probits were used for the calculation of IC50 values. The reported IC50 were the averages of three independent screening (SD ≤ 10%)[27].
(§2) Two series of compounds synthesized (4a–p and 5a–f) were evaluated for their cytotoxicity against three human cancer cell lines, including SW620 (colon cancer), PC3 (prostate cancer), NCI-H23 (lung cancer), using SRB method as described previously[22] with slight modifications[23]–[26].

[4] = Cytotoxicity on normal mesenchymal stem cells; format: cell-based; conditions: human bone marrow-derived mesenchymal stem cells; mean ± SEM; read-out: Cytotoxicity (IC50) MSCs
Description: Overally, 5-fluorinated compounds (4i–p and 5d–f) were slightly more cytotoxic than non-fluorinated ones (4a–h, 5a–c). For compounds in series 4a–p, it was observed that, electron-releasing substituents (–OCH3, OH) were generally better than electron-withdrawing groups (–Cl) for cytotoxicity. Especially, compounds with 2-OH substituents produced the best cytotoxicity. The addition of either 4-OCH3 or 3-allyl groups further enhanced cytotoxicity of the related compounds (4g, 4h and 4o, 4p).

[5] = tested on: U937 human lymphoma cells; experiment: Cell cycle analysis (PI, flow cytometry); format: cell-based; conditions: 50 µM, 24 h
Description: U937 human lymphoma cells (5 × 10^5/mL per well) were plated in 6-well culture plates and allowed to grow for 24 h. In our first experiment, we examined the effects of 4f, 4h, 4n, 4o, 4p, and PAC-1 on cell cycles at 50 µM. In the second experiment, we examined the dose-dependent effect of 4o at 5, 10, and 30 µM and PAC-1 at 30 µM on cell cycles. The cells were treated with compounds for 24 h, and then harvested. The harvested cells were washed twice with ice-cold PBS, fixed in 75% ice-cold ethanol, and stained with propidium iodide (PI) in the presence of RNase at room temperature for 30 min. The stained cells were analyzed for DNA content using a FACScalibur flow cytometer (BD Biosciences, San Jose, CA, USA) and the data were processed using Cell Quest Pro software (BD Biosciences).
(§3) Figure 3 Cell cycle analysis after treatment with some compounds. U937 human lymphoma cells were treated with compounds (50 µM) for 24 h. The harvested cells were stained with propidium iodide (PI) in the presence of RNase and then were analyzed for DNA content by using flow cytometry. Ten thousand cells were acquired (n = 3). UN untreated, VH vehicle (DMSO. 0.1%). Representative histograms (A) and bar graphs (B) are shown. p values were calculated using one-way ANOVA in GraphPad Software (San Diego, CA, USA). *p < 0.01 vs VH control.
as §3, with “Figure 4” for “Figure 3”, “analysis under” for “analysis after”, “with different concentrations of compound 4o.” for “with some compounds.”, “with compound 4o at 5, 10 and 30 µM or PAC-1 (30” for “with compounds (50”

PC3 (prostate cancer) [6] = experiment: SRB cytotoxicity assay, PC3; format: cell-based; conditions: Homo sapiens, 48 h incubation, mean ± SEM of 3 independent experiments
Excerpt: as §1, §2

SW620 (colon cancer) = experiment: SRB cytotoxicity assay, SW620; format: cell-based; conditions: Homo sapiens, SW-620, 48 h incubation, mean ± SEM of 3 independent experiments
Excerpt: as §1, §2

U937 cells = tested on: U937 cells; set-up: method as in PMID 34674294; conditions: 48 h, as reported, read-out: IC50 in 48-h-cytotoxicity assay; cited from earlier work
SW620 cells = experiment: Morphology changes of treated cells; format: cell-based, human; conditions: 24 h treatment (50 μM; 4o 5, 10, 30 μM; PAC-1 30 μM)
Description: (§4) Figure 7 Morphology changes of cells treated with compound 4f, 4h, 4n, 4o, 4p or PAC-1. SW620 at 2.5 × 10^5 cells/mL (500 µL in 24 well) were incubated for 24 h and then further treated with compounds or PAC-1 (50 μM) for 24 h. Cells were photographed using an Imaging Device (Celldiscoverer 7) with ×20 (A) and ×40 (B) lens. Scale bar: […]. UN untreated, VH vehicle (DMSO. 0.1%). Representative images are shown.
as §4, with “Figure 8” for “Figure 7”, “compound 4o” for “compound 4f, 4h, 4n, 4o, 4p”, “with 4o (5, 10, and 30 μM)” for “with compounds”, “PAC-1 (30” for “PAC-1 (50”

caspase-3 = target: T1, caspase-3 (Homo sapiens, UniProt P42574); experiment: Caspase-3 activation assay in U937 cell extract; format: cell-based; conditions: U937 cells, 24 h, 50 µM
T1 construct: endogenous in cells; host or cells: U937 human lymphoma cells
T1 sequence (P42574 1-277): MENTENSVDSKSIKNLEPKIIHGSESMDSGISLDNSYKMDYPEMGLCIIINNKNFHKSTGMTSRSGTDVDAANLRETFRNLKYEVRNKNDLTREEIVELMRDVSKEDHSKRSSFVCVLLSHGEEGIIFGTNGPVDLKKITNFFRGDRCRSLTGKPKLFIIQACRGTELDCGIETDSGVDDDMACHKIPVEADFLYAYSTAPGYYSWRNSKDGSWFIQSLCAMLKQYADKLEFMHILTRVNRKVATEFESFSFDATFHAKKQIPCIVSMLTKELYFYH
Description: Caspase-3 activation assay
Caspase activity was measured by using caspase 3 assay kit according to the manufacturer’s instructions (abcam, MA, USA). U937 human lymphoma cells (5 × 10^5/mL per well) were plated in 6-well culture plates and allowed to grow for 24 h. The cells were treated with compounds for 24 h, and then harvested. The harvested cells were washed twice with ice-cold PBS and treated with lysis buffer included in the kit. Cell lysate (100 µg/50 µL) was mixed with 50 µL of 2 × reaction buffer and 5 µL of DEVD-p-NA substrate as the instruction of caspase-3 assay kit (Abcam, cat. N. ab39401). […] was measured after one-hour incubation.
Next, we selected 5 representative compounds, including 4f, 4h, 4n, 4o and 4p, to investigate their effects on the caspase activity, cell cycle, and apoptosis. […] Thus, we used the extract of U937 cells in caspase-3 activation assay, referring to our previous study. […] However, our compounds unexpectedly were not recorded to activate caspase-3 activity. […] Next, we investigated the effect of PAC-1 and our chemicals on cell cycle and apoptosis by using U937 cells. In the cell cycle analysis, U937 cells were treated with 50 µM of compounds for 24 h, stained with propidium iodide (PI) in the presence of RNase, and then analyzed for DNA content by using flow cytometry. PAC-1 was used in parallel as a positive control.

| Structure (SMILES) | IC50 (PC3 (prostate cancer) [1]) | IC50 (NCI-H23 (lung cancer) [2]) | IC50 (NCI-H23 (lung cancer) [3]) | IC50 [4] | Effect on cell cycle distribution [5] | IC50 (PC3 (prostate cancer) [6]) | IC50 (SW620 (colon cancer)) | IC50 (U937 cells) | Cellular morphology (SW620 cells) | Caspase-3 activation (caspase-3) |
| --- | --- | --- | --- | --- | --- | --- | --- | --- | --- | --- |
| O=c1[nH]cc(F)c(=O)[nH]1 [Compound 5-FU, 5-Fluorouracil] | 13.6 ± 0.46 µM | 13.5 ± 3.92 µM | – | – | – | – | – | – | – | – |
| C=CCc1cccc(/C=N/NC(=O)CN2CCN(Cc3ccccc3)CC2)c1O [PAC-1, reference compound] | – | – | 5.11 ± 0.22 µM | 9.22 ± 0.12 µM | accumulation of cells in G0/G1 phase | 4.11 ± 0.39 µM | 5.43 ± 0.18 µM | 8.47 µM | showed morphology of apoptotic cells | activated caspase-3 |
